These results are taken from patent US7572939B2, “Type of soluble pentacene precursor” (Academia Sinica, priority 2006, dated 2009).

Read-outs that look alike come from different tables or passages of the source.

Holding throughout (type): physicochemical
Data set [1] can be described thus: Solubility in organic solvents. On the procedure: Compound (3) is quite soluble in dichloromethane benzene, toluene, acetone, and tetrahydrofuran (all in the range of ˜2.0 mM i.e. about 0.7 mg/mL solvent) but is not soluble in methanol, ethanol, or acetonitrile. Compound (3) can be applied to a surface of an article by spin coating, spray coating, screen printing or ink-jet printing to form a film. The film can be dried in any of the conventional ways including air drying or with mild heating, i.e. below about 120° C. Subsequent to drying, a chemical reaction is initiated preferably by the application of heat resulting, inter alia, in the driving off of volatile components including CO.

Data set [2] is described as follows: Thermal stability by TGA (thermal gravimetric analysis) and DSC. The protocol: Thermal initiated carbonyl extrusion can be depicted by both TGA (thermal gravimetric analysis) and DSC (differential scanning calorimetry) studies. […] The decarbonylation appears at 150° C. to yield pentacene, which decomposes at about 360° C. as measured by 5% weight loss. During the extrusion, Compound (3) loses about 9% weight corresponding to the weight ratio of CO in the molecule. The pentacene thus produced is stable up to temperatures of about 350° C. Above about 350° C., Compound (3) starts to experience thermal decomposition.
General: ^1H^13C NMR spectra were obtained on a Bruker AMX-400 spectrometer. Infrared spectra were recorded on a Perkin-Elmer 682 infrared spectrophotometer. Ultraviolet-visible absorption Spectra were recorded on a HP 8453 spectrophotometer. Differential scanning calorimetry was done on a Perkin-Elmer model DSC7 instrument. Thermal gravimetric analysis was performed by a Perkin-Elmer TGA7 analyzer.

Data set [3] is described as follows: Stability at ambient conditions.

With `O=C1C2c3cc4ccccc4cc3C1c1cc3ccccc3cc12` [Compound (3), 6,13-dihydro-6,13-methanopentacene-15-one], the solubility (as a rule, how much of the substance goes into solution per volume) is “not soluble” in data set [1] (in methanol, ethanol or acetonitrile); about 2000 µM in data set [1] (organic solvent or mixture, in dichloromethane, benzene, toluene, acetone and tetrahydrofuran (all in this range), read-out: solubility); about 0.7 mg/mL in data set [1] (organic solvent or mixture, in dichloromethane, benzene, toluene, acetone and tetrahydrofuran, per mL solvent, read-out: solubility). In addition, the “temperature above which thermal decomposition starts” value in data set [2] (TGA) is “Above 350 °C”. Besides, in data set [2] (TGA/DSC, 10° C./min heating rate, CO extrusion to yield pentacene), the “fragmentation (decarbonylation) temperature” value was found to be 150 °C. Further, the “weight loss during CO extrusion” value in data set [2] (TGA, corresponds to weight ratio of CO in the molecule) is “about 9%”. Besides, the stability result in data set [3] is recorded as “stable”.

As to `c1ccc2cc3cc4cc5ccccc5cc4cc3cc2c1` [pentacene], the decomposition temperature result in data set [2] (TGA, as measured by 5% weight loss) was “about 360 °C”. Also, the “temperature up to which stable” value in data set [2] (TGA, pentacene produced from the precursor) was “about 350 °C”.
